Data: ChEMBL document CHEMBL1142467, “A novel monoacylglycerol lipase inhibitor with analgesic and anti-inflammatory activity” (Bioorg Med Chem Lett, 2008)
Activity calls are given as the source filed them. The rule behind the calls is not given here.

Experiments:
[1] = biological target: T1, Fatty-acid amide hydrolase 1 (Rattus norvegicus) (UniProt P97612); assay: Inhibition of Sprague-Dawley rat FAAH at 100 uM
T1 sequence (whole entry): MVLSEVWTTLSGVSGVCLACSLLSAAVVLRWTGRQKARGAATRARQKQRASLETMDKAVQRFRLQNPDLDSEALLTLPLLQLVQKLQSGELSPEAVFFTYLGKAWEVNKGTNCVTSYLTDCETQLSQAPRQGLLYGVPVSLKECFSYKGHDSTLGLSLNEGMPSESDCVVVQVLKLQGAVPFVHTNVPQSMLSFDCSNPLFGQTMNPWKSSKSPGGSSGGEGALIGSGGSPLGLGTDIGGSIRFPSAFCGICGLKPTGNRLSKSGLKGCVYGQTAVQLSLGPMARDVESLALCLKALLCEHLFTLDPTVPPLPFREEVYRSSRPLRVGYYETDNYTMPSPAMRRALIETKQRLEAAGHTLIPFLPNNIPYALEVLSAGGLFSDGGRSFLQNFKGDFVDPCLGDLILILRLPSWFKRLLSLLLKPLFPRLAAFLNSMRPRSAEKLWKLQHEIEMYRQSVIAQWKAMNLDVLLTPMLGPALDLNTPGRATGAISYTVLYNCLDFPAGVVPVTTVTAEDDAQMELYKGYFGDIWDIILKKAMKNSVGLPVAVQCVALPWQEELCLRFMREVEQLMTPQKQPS

[2] = biological target: T2, Monoglyceride lipase (Rattus norvegicus) (UniProt Q8R431); assay: Inhibition of Sprague-Dawley rat MGL at 100 uM
T2 sequence (whole entry): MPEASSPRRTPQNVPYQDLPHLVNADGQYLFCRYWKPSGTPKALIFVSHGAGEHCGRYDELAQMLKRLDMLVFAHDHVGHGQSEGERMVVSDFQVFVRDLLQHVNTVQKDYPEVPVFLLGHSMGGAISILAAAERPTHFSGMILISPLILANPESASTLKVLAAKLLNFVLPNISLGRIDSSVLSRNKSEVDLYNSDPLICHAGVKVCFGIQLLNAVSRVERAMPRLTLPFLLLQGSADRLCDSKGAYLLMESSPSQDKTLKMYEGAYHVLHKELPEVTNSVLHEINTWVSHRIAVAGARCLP

Monoglyceride lipase = biological target: T3, Monoglyceride lipase (Rattus norvegicus, UniProt Q8R431); assay: Inhibition of Sprague-Dawley rat MGL
T3 sequence (Q8R431 whole entry): T2 sequence (whole entry)

Rattus norvegicus [3] = assay: Analgesic activity in rat assessed as inhibition of acetic acid-induced writhing responses at 3.6 mg/kg, ip; assay type: functional, organism-based; set-up: dose 3.6 mg/kg
Rattus norvegicus [4] = assay: Antiinflammatory activity against carrageenan-induced foot paw edema in rat; assay type: functional
Rattus norvegicus [5] = assay: Antiinflammatory activity against carrageenan-induced foot paw edema in rat at 0.01 mmol/kg, ip; assay type: functional
Rattus norvegicus [6] = assay: Analgesic activity in rat assessed as inhibition of acetic acid-induced writhing responses at 36 mg/kg, ip; assay type: functional, organism-based; set-up: dose 36 mg/kg

Row | Compound | inhibition [1] | inhibition [2] | Ki (Monoglyceride lipase) | Activity (Rattus norvegicus [3]) | ED50 (Rattus norvegicus [4]) | inhibition in vivo at 10 µmol/kg (Rattus norvegicus [5]) | Activity (Rattus norvegicus [6])
1 | CCCCCCCC/C=C\CCCCCC[C@H](N)CN | 4.9% | 49.9% | 21.8 µM | Active | 10 µmol/kg |  | 
2 | COc1ccc2c(c1)c(CC(=O)O)c(C)n2C(=O)c1ccc(Cl)cc1 [INDOMETHACIN] |  |  |  |  |  | 47% | 
3 | CCCCCCCC/C=C\CCCCCC[C@@H](N)C(N)=O | 24% | 0% |  |  |  |  | 
4 | CCCCCCCCCCCCCCC(=O)C(=O)NCCO | 23.8% | 27.5% |  |  |  |  | 

More lines, main results first:

Row | inhibition [1] | inhibition [2] | Ki (Monoglyceride lipase) | Compound | Activity (Rattus norvegicus [3]) | ED50 (Rattus norvegicus [4]) | inhibition in vivo at 10 µmol/kg (Rattus norvegicus [5]) | Activity (Rattus norvegicus [6])
5 | 33.6% | 31.5% |  | CCCCCCCCCCCCCC[C@H](N)CO |  |  |  | 
6 | 0% | 0% |  | NC[C@@H](N)CCCCc1ccccc1 |  |  |  | 
7 | 31.2% | 30.3% | 58.7 µM | CCCCCCCCCCCCCCC(N)CN (stereo not given) |  |  |  | 
8 | 30.9% | 25.9% |  | CCCCCCOc1ccc(CCCC[C@H](N)CN)cc1 |  |  |  | 
9 | 31.3% | 30% |  | CCCCCCCCCCCCCC[C@@H](N)CO |  |  |  | 
10 | 25.9% | 42.2% | 39 µM | CCCCCCCC/C=C\CCCCCC[C@@H](N)CN |  |  |  | Active
